Data from patent publication US11473088B2, “Method of treating cancer and method of sensitizing cancer cells to the action of chemotherapeutic agents via growth hormone receptor antagonists or knock down” (Ohio University, priority 2016, dated 2022).

Legend:
SK-MEL-5 cells = test: Phosphorylation of intracellular signaling intermediates by WB; format: cell-based, human
Procedure: (§1) Briefly, cell lysates were separated by SDS-PAGE and transferred to nitrocellulose membrane by a wet-transfer method at 70 mA over 14 hours at 4° C. and blocked with 5% non-fat dry milk (NFDM) or 5% bovine serum albumin (BSA) in 1× TBS-T (Tris buffered saline, […] with 0.1% Triton-X100) for 12-16 hours at 4° C. with gentle rocking. Membranes were then incubated with primary antibody (at the specific dilutions cited below) for 12-16 hours at 4° C. with gentle rocking. Membranes were then washed for 5 min. 3 times with 1× TBS-T and incubated with corresponding secondary antibodies (at the specific dilutions cited below) for 2 hours at 25° C. Membranes were then washed for 5 min. 4 times with 1× TBS-T, treated with West Femto Chemiluminiscence detection reagents (Thermo Fisher Scientific), and the chemiluminiscence signal was captured using a GelDoc (Biorad) fluorescence reader. Densitometric analysis of the blots was performed by measured band-intensity from the area-under-curve using ImageJ software.
(§2) GH-GHR action regulates phosphorylation states of intracellular signaling intermediates in human melanoma cells: In order to assess the effects of GHR-KD on the activation states of GH regulated shared oncogenic signaling pathways, scr-siRNA or GHR-siRNA transfected human melanoma cells, at 60 hours post-transfection, were treated with 50 ng/ml hGH for 20 minutes, and phosphorylation levels of intracellular signaling intermediates were analyzed by WB. Results are described below, and shown in FIGS. 9A-9I, 10A-10L, and 11A-11I. For the results described and shown in FIGS. 9A-I, SK-MEL-28 cells, 24 hr post-transfection with either scramble (scr)-siRNA or GHR-siRNA were treated for ten mins with GH and lysed as described. WB was performed using appropriate antibodies. Densitometry analyses of individual blots was performed using Image) software and the ratio of phosphorylated vs. total protein levels against untreated scr-siRNA transfected controls. Overall, excess GH increased while GHR-KD decreased phosphorylation states. […] In all cases, […]] Blots from individual experiments were quantified and the mean of three blots per antibody was taken. Protein levels were normalized against expression of β-actin. [*, p<0.05, Students t test, n=3]. And, for the results described and shown in FIGS. 11A-11I, WB was performed using appropriate antibodies. Densitometry analyses of individual blots was performed using ImageJ software and the ratio of phosphorylated vs. total protein levels against untreated scr-siRNA transfected controls. Overall, excess GH increased while GHR-KD decreased phosphorylation states. Blots from individual experiments were quantified and the mean of three blots per antibody was taken. Protein levels were normalized against expression of β-actin. [*, p<0.05, Students t test, n=3]

MALME-3M cells = test: as above; format: cell-based, human
Procedure: as §1, §2

SK-MEL-28 cells = test: as above; format: cell-based, human
Procedure: as §1, §2

four melanoma cell lines = test: Cell proliferation / EC50 determination; details: serum concentration in media 1%
Procedure: A 1% (w/v) resazurin (Sigma-Aldrich #R7017) solution in 1× PBS was made and filter-sterilized. The final concentration of resazurin in the assay was 0.004%. Inside the proliferating cells, mildly fluorescent blue resazurin is reduced to a bright pink fluorescent product called resorufin (stable for 4 hours), which allows for a quantitative measure of the percentage of proliferating cells. In all cases, cells were incubated at 37° C. in 5% CO2 for 45-60 min. for adequate sensitivity of detection. Briefly, cells were seeded at 10,000 cells/cm^2 into 96-well plates and transfected as described above. The resazurin assay was performed 60 hours after transfection (unless specified otherwise) and resorufin absorbance was measured at 570 nm (reference wavelength=600 nm) using Spectramax250 (Molecular Devices, Sunnyvale, Calif.) and SoftmaxPro software.
More specifically, SK-MEL-28 cells (FIG. 8A, panel 1), MALME-3M cells (FIG. 8A, panel 2), MDA-MB-435 cells (FIG. 8A, panel 3), and SK-MEL-5 cells (FIG. 8A, panel 4) were treated with increasing doses of hGH for 48 hr. and cell proliferation was estimated using a resazurin-based metabolic assay.
For treatment of melanoma cells, the following five anti-tumor compounds were obtained from the sources mentioned: cisplatin (Calbiochem #232120, Darmstadt, Germany), doxorubicin (Sigma Aldrich #D-1515, St. Louis, Mo.), oridonin (Sigma-Aldrich #O-9639, St. Louis, Mo.), Paclitaxel (Sigma-Aldrich #C-7191), and vemurafenib/PLX4032 (ApexBio #A-3004, Houston, Tex.). […] In the subsequent experiments, the following drug concentrations were used unless specified otherwise: cisplatin (0.5 μM), doxorubicin (10 nM), oridonin (0.5 μM), paclitaxel (1 nM), vemurafenib (2 nM). Treatments were performed for 24 hours starting 48 hours post-transfection with siRNA.

melanoma cells = test: Migration, invasion, clonogenicity with excess GH; format: cell-based, human; details: up to 150 ng/ml GH
Procedure: Cell migration assays are standard methods of estimating the repair and regenerative properties of cells. In this example, the Radius Cell Migration Assay design from Cell Biolabs (Cell Biolabs #CBA-125, San Diego, Calif.) was used, and experiments were performed as per the manufacturer's protocol. In this assay, a 24-well plate containing a non-toxic, 0.68 mm biocompatible hydrogel spot is present at the center of the well, which spot prevents the attachment of cells. siRNA treated cells were trypsinized 48 hours post-transfection, counted, and seeded at 5000 cells/well in a pretreated hydrogel spot-containing 24-well plate. […] Images were captured every 24 hours using a 4× objective (total magnification 40×) employing an inverted Olympus IX70 microscope fitted with a Retiga 1300 camera (QImaging, Surrey, BC). Total uncovered area at the beginning and end of assay were quantitated using ImageJ software, Experiments were performed in triplicates.
The 96-well 3D spheroid BME cell invasion assay (Trevigen, Gaithersburg, Md.) was used to evaluate the ability of cells to invade surrounding tissue. […] The invasive behavior of the cells was monitored every 24 hours for up to 72 hours. […] Total pixels at the beginning and end of assay were quantitated using ImageJ software. […]
Colony formation on soft agar assay was next examined using a high-throughput fluorescent readout. […]

hGH: Recombinant human growth hormone, Antibodies Online #ABIN2017921
ERK1/2 levels upregulated by GH (increase) (SK-MEL-5 cells): 5 fold | increase in GH-induced phosphorylation of JAK2 (SK-MEL-5 cells): 1.7 fold | increase of AKT phosphorylation level (SK-MEL-5 cells; 50 ng/ml hGH): up to 4 fold | increase of mTOR phosphorylation level (SK-MEL-5 cells; 50 ng/ml hGH): ≤ 15 fold | increase in GH-induced phosphorylation of SRC (MALME-3M cells): 1.7 fold | STAT5 phosphorylation increased (MALME-3M cells; 50 ng/ml hGH): 5.8 fold | increase in STAT1 phosphorylation level (MALME-3M cells; 50 ng/ml hGH): 2.2 fold | increase in STAT3 phosphorylation level (MALME-3M cells; 50 ng/ml hGH): 11.9 fold | increase in GH-induced phosphorylation of JAK2 (SK-MEL-28 cells): 6.1 fold | increase in GH-induced phosphorylation of SRC (SK-MEL-28 cells): 3.5 fold | STAT5 phosphorylation increased (SK-MEL-28 cells; 50 ng/ml hGH): 4.1 fold | increase in STAT1 phosphorylation level (SK-MEL-28 cells; 50 ng/ml hGH): 2.4 fold | increase in STAT3 phosphorylation level (SK-MEL-28 cells; 50 ng/ml hGH): 1.9 fold | minimum hGH concentration for a significant difference in cell proliferation (four melanoma cell lines): 50 ng/mL | melanoma migration, invasion, or clonogenicity upon incubation with excess GH (melanoma cells): No marked increase
